In data set [1] the target is T1, human serotonin 5-HT2A receptor (Homo sapiens, UniProt P28223).
T1 construct: host or cells: HEK293 (ATCC CRL-1573)
As to the kind of experiment: Radioligand ([3H]LSD) competition binding, 5-HT2A receptor. As to conditions: in words; up to 10 μM for partial competition. Here is the method: Binding affinity (Ki) and functional potency and efficacy (EC50 and EMAX) values of the compounds were measured.
Radioligand competition binding was performed as previously described (Saraf, T. S., Felsing, D. E., Armstrong, J. L., Booth, R. G., and Canal, C. E., 2021, Evaluation of lorcaserin as an anticonvulsant in juvenile Fmr1 knockout mice, Epilepsy Res 175, 106677), with minor modifications, using human cloned 5-HT2A receptors. Plasmids encoding human serotonin 5-HT2A receptor cDNA were procured from the cDNA Resource Center. Human embryonic kidney cells (HEK293, ATCC CRL-1573) were grown in a cell incubator in 100 mm dishes with antibiotic-free Dulbecco's modified Eagle's medium containing 10% fetal bovine serum. Cells were transfected at ~85% confluency with 5-15 μg cDNA using TransIT-2020 reagent (Mirus Bio, Madison, Wisconsin). After approximately 48 hours, cell membrane was collected via centrifugation. For all experiments, serotonin (5-HT) hydrochloride was used as a positive control, and mianserin hydrochloride (10 μM) was used to define non-specific binding. Each cell membrane homogenate expressing 5-HT2A receptors was incubated at room temperature in 96-well plates with [^3H] […] Following equilibration, each sample was filtered rapidly under vacuum through fiberglass filters presoaked in a buffer and washed by vacuum several times with an ice-cold buffer. Filters were soaked with scintillation fluid and counts per minute were detected using photodetectors (Microbeta Scintillation Counter). […] Data shown are the results from all experiments combined. As is known, G protein-coupled receptors, including the 5-HT2A receptor, can exist in multiple conformations, and ligands, typically agonist ligands, have unique affinities for these conformations of the receptor (Kenakin, T. Theoretical Aspects of GPCR-Ligand Complex Pharmacology, Chem. Rev. 2017, 117, 1, 4-20). […] However, for simplicity reasons, affinity of these compounds are reported herein as fitted to the single-site model. The data point for −10 samples is total specific binding (no compound present), and −4 was interpolated to complete the binding curves to 0 specific binding.

The next data set concerns the target recombinant human MAO-A (Homo sapiens, UniProt P21397). As to the kind of experiment: in vitro. The format is in vitro ADME. As to conditions: role: substrate, hrMAO-A 0.02 mg/mL, test compound 1 μM, pH 7.4, 37° C. How it is done:
hrMAO-A and MAO control were purchased from XenoTech. The reaction mixture was prepared as described below. The test compound was added into the reaction mixture at a final concentration of 1 μM. The positive control, kynuramine (25 μM), was run simultaneously with the test compound in a separate reaction. The reaction mixture (without test compounds or kynuramine) was equilibrated in a shaking water bath at 37° C. for 5 minutes. The reaction was initiated by the addition of the test compound or kynuramine, and the mixture was incubated in a shaking water bath at 37° C. Aliquots (150 μL) of the test compound reaction mixture were withdrawn at 0, 5, 10, 20, 30,60, and 120 minutes. Aliquots (150 μL) of the positive control reaction mixture were withdrawn at 0 and 30 minutes. Test compound and kynuramine samples were immediately combined with 150 AL of ice-cold 100% acetonitrile containing 0.1% formic acid and internal standard (0.2 μM metoprolol) to terminate the reaction. The samples were then mixed and centrifuged to precipitate proteins. All samples were assayed by LC-MS/MS. The peak area response ratio (PARR) of analyte to internal standard at each time point was compared to the PARR at time 0 to determine the percent remaining at each time point. Half-lives were calculated using GraphPad software, fitting to a single-phase exponential decay equation.

A further data set can be described thus: in vitro. The format is in vitro ADME, Male Sprague-Dawley rat. Particulars: rat liver microsomes 0.5 mg/mL, 1 mM NADPH, test compound 1 μM, pH 7.4, 37° C.; read-out: RLM, t1/2. How it is done:
Male Sprague-Dawley rat liver microsomes were purchased from XenoTech. The reaction mixture, minus NADPH, was prepared as described below. The test compound was added into the reaction mixture at a final concentration of 1 μM. The control compound, testosterone, was run simultaneously with the test compound in a separate reaction. The reaction mixture (without cofactor) was equilibrated in a shaking water bath at 37° C. for 5 minutes. The reaction was initiated by the addition of the cofactor, and the mixture was incubated in a shaking water bath at 37° C. Aliquots (150 μL) were withdrawn at 0, 5, 10, 20, 30, 60, and 120 minutes. Test compound and testosterone samples were immediately combined with 150 μL of ice-cold acetonitrile (ACN) containing 0.1% formic acid and internal standard to terminate the reaction. The samples were then mixed and centrifuged to precipitate proteins. All samples were assayed by LC-MS/MS using electrospray ionization. The peak area response ratio (PARR) of analyte to internal standard at each time point was compared to the PARR at time 0 to determine the percent remaining at each time point. Half-lives were calculated using GraphPad software, fitting to a single-phase exponential decay equation.
For orientation: Liver microsomes are vesicles of endoplasmic reticulum, rich in cytochrome P450 enzymes.

Results on 1 compound are retold here after patent US20260337162A1, “TRYPTAMINE COMPOUNDS, COMPOSITIONS, AND METHODS OF USE” (priority 2022, published 2026).

The structures appear in SMILES notation.

recombinant human MAO-A, sequence (P21397 whole entry): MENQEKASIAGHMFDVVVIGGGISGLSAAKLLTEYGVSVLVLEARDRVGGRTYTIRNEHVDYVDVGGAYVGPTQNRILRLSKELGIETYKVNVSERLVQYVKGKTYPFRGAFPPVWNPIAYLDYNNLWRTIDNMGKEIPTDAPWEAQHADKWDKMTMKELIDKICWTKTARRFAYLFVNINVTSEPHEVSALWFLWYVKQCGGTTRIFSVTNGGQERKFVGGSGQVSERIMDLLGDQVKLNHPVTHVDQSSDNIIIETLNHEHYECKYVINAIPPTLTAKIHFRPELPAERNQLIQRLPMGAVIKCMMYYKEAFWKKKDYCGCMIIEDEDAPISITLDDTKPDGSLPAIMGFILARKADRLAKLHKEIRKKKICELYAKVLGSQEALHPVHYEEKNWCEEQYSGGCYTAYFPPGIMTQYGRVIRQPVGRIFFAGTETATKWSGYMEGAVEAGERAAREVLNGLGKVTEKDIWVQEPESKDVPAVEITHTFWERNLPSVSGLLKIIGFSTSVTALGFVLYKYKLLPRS
T1 sequence (P28223 whole entry): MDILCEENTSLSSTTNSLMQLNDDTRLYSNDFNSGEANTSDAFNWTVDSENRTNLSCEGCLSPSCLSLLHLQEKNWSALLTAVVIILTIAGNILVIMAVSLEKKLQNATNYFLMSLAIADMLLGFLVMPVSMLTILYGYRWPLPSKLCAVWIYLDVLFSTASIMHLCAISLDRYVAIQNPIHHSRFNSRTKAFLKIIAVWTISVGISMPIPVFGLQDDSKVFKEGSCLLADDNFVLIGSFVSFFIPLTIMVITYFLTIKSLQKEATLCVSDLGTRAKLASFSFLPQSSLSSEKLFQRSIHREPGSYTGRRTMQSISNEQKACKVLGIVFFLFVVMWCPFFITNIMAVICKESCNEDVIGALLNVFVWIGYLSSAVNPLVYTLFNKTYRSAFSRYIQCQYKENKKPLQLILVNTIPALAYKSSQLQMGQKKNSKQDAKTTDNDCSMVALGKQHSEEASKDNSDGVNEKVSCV

Take `FC(F)(F)CNCCc1c[nH]c2ccccc12` [II-20, N-(2-(1H-indol-3-yl)ethyl)-2,2,2-trifluoroethan-1-amine]: the “competition for [3H]LSD-labeled 5-HT2A receptors” value in data set [1] is reported as “only partial competition”. The figures for the half-life at 1 µM on recombinant human MAO-A and in “in vitro” were greater than 120 min and 7.63 min, respectively.
